In one series the test system is intragastric pH. The series can be described thus: Emax model: esomeprazole AUC0-24 vs percent time intragastric pH>4.0 on Day 9 (Example 11). The format is in vivo, human.
For series [1] the following is noted: in vivo; cited from earlier work.
For the next series, the system named is gastric pH. Conditions: during the 8-10 hours following naproxen sodium dosing.
For a further series, the system named is gastroduodenal mucosa. Conditions: twice daily for five days.

SMILES strings stand for the structures.

`COc1ccc2nc([S@@+]([O-])Cc3ncc(C)c(OC)c3C)[nH]c2c1` [esomeprazole]: in the series with intragastric pH (Day 9), the “Emax, maximal effect: % of time with intragastric pH>4.0 over the daily interval at steady state” value worked out at 90.4%. Besides, in the series with intragastric pH (Day 9, plasma esomeprazole), the “AUC0-24 value required to achieve half (or 50%) of the maximal response (EC50)” value turned out to be 713 ng·h/mL.

Take `CCc1cccc2c3c([nH]c12)C(CC)(CC(=O)O)OCC3` (stereo not drawn) [etodolac]: in series [1], the half-life entry is recorded as “about 7 hours”.

For `CC(C(=O)O)c1ccc(-c2ccccc2)c(F)c1` (stereo not drawn) [flurbiprofen], the half-life result in series [1] is given as “about 6 hours”.

Take `O=C(c1ccccc1)c1ccc2n1CCC2C(=O)O` (stereo not drawn) [ketorolac]: the half-life in series [1] is 8 to 9 h.

For the compound `Cc1cccc(Nc2ccccc2C(=O)O)c1C` [mefenamic acid], the half-life entry in series [1] was “up to 4 hours”.

In the case of `COc1ccc2cc([C@H](C)C(=O)O)ccc2c1` [naproxen sodium], in the series with gastric pH, the “time the pH was greater than 4” value came to 4%. In addition, the “patients presenting with gastroduodenal ulcers at the end of the study” value with gastroduodenal mucosa is 33%. For the same compound, in the series with gastroduodenal mucosa (Day 5 endoscopy), the “subjects with Lanza grade 3 or 4 damage” value is 100%.

As usually defined, the half-life is the time in which the quantity being followed falls by half.

These data come from patent US20100172983A1 (priority 2001, published 2010).
